Assay results from article PMC9945734 (BMC Medicine, 2023).
Where two headings read alike, the source gives them in different places.

System: PC-3-KQ cells
Assay: 3D spheroid invasion assay and screening of FDA-approved drugs
Format: cell-based, human
Settings: for Invasion rates (%) of each drug’s multiple concentrations (μM) / activity at 0.01 µM / activity at 0.1 µM / activity at 1 µM / activity at 10 µM: compared to vehicle control; for activity at 0.01 µM / activity at 0.1 µM / activity at 1 µM / activity at 10 µM: 72 h
How it was run: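 Cells were clustered into spheroids by centrifugation and grown 3 days, then embedded in matrigel-medium containing drug on day 4 and cultured another 3 days. Drugs were screened at 10 μM first, then at 0–10 μM, in duplicate wells. Invasion area is total area minus core sphere area from phase-contrast images.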

[1] = 0.01 μM (first column so headed), secondary screening of 87 hit compounds (Table S1)
[2] = 0.01 μM (first column so headed), third screening of 25 hit compounds (Table S2)
[3] = 0.01 μM (second column so headed), secondary screening of 87 hit compounds (Table S1)
[4] = 0.01 μM (second column so headed), third screening of 25 hit compounds (Table S2)
[5] = 0.1 μM, secondary screening of 87 hit compounds (Table S1)
[6] = 0.1 μM, third screening of 25 hit compounds (Table S2)
[7] = 1 μM, secondary screening of 87 hit compounds (Table S1)
[8] = 1 μM, third screening of 25 hit compounds (Table S2)
[9] = 10 μM, secondary screening of 87 hit compounds (Table S1)
[10] = 10 μM, third screening of 25 hit compounds (Table S2)
[11] = Homo sapiens, 0.01 μM (first column so headed), secondary screening of 87 hit compounds (Table S1), read-out: Invasion rates (%) of each drug’s multiple concentrations
[12] = Homo sapiens, 0.01 μM (second column so headed), secondary screening of 87 hit compounds (Table S1), read-out: Invasion rates (%) of each drug’s multiple concentrations
[13] = Homo sapiens, 0.1 μM, secondary screening of 87 hit compounds (Table S1), read-out: Invasion rates (%) of each drug’s multiple concentrations
[14] = Homo sapiens, 1 μM, secondary screening of 87 hit compounds (Table S1), read-out: Invasion rates (%) of each drug’s multiple concentrations
[15] = Homo sapiens, 10 μM, secondary screening of 87 hit compounds (Table S1), read-out: Invasion rates (%) of each drug’s multiple concentrations
[16] = Homo sapiens, 0.01 μM (first column so headed), third screening of 25 hit compounds (Table S2), read-out: Invasion rates (%) of each drug’s multiple concentrations
[17] = Homo sapiens, 0.01 μM (second column so headed), third screening of 25 hit compounds (Table S2), read-out: Invasion rates (%) of each drug’s multiple concentrations
[18] = Homo sapiens, 0.1 μM, third screening of 25 hit compounds (Table S2), read-out: Invasion rates (%) of each drug’s multiple concentrations
[19] = Homo sapiens, 1 μM, third screening of 25 hit compounds (Table S2), read-out: Invasion rates (%) of each drug’s multiple concentrations
[20] = Homo sapiens, 10 μM, third screening of 25 hit compounds (Table S2), read-out: Invasion rates (%) of each drug’s multiple concentrations

SMILES | Invasion rates (%) of each drug’s multiple concentrations (μM) [1] [%] | Invasion rates (%) of each drug’s multiple concentrations (μM) [3] [%] | Invasion rates (%) of each drug’s multiple concentrations (μM) [5] [%] | Invasion rates (%) of each drug’s multiple concentrations (μM) [7] [%] | Invasion rates (%) of each drug’s multiple concentrations (μM) [9] [%] | activity at 0.01 µM [11] [%] | activity at 0.01 µM [12] [%] | activity at 0.1 µM [13] [%] | activity at 1 µM [14] [%] | activity at 10 µM [15] [%] | also measured
CN(C)[C@@H]1C(=O)C(C(N)=O)=C(O)[C@@]2(O)C(=O)C3=C(O)c4c(O)ccc(Cl)c4[C@@H](O)[C@H]3C[C@@H]12.Cl [Demeclocycline (hydrochloride)] | 92.92 | 97.24 | 81.08 | 41.75 | 4.21 | – | – | – | – | – | Invasion rates (%) of each drug’s multiple concentrations (μM) [2]: 93.85%; Invasion rates (%) of each drug’s multiple concentrations (μM) [4]: 95.74%; Invasion rates (%) of each drug’s multiple concentrations (μM) [6]: 89.49%; Invasion rates (%) of each drug’s multiple concentrations (μM) [8]: 2.65%; Invasion rates (%) of each drug’s multiple concentrations (μM) [10]: 0.30%
COc1ccc2c(O[C@@H]3C[C@H]4C(=O)N[C@]5(C(=O)NS(=O)(=O)C6CC6)C[C@H]5/C=C\CCCCN(C)C(=O)[C@@H]4C3)cc(-c3nc(C(C)C)cs3)nc2c1C [Simeprevir] | – | – | – | – | – | 98.5 | 101 | 97.2 | 96.2 | 38.8 | –
Nc1c2ccccc2nc2ccccc12 [9-Aminoacridine] | – | – | – | – | – | 96 | 93.3 | 94.7 | 86.4 | 1.63 | –
CC(C)C[C@H](NC(=O)CNC(=O)c1cc(Cl)ccc1Cl)B(O)O [Ixazomib] | – | – | – | – | – | 35.2 | 76.3 | 22.3 | 3.86 | 1.01 | activity at 0.01 µM [16]: 83.1%; activity at 0.01 µM [17]: 95.7%; activity at 0.1 µM [18]: 76.1%; activity at 1 µM [19]: 0.53%; activity at 10 µM [20]: 0.3%
CS(=O)(=O)O.C[C@H]1NCc2cc(-c3ccc4c(=O)c(C(=O)O)cn(C5CC5)c4c3OC(F)F)ccc21.O [Garenoxacin (Mesylate hydrate)] | 89.65 | 95.96 | 85.98 | 96.56 | 48.76 | – | – | – | – | – | –
CCCCCCCCCCCC[N+](C)(C)CCOc1ccccc1.[Br-] [Domiphen (bromide)] | 89.87 | 94.08 | 85.67 | 77.63 | 66.00 | – | – | – | – | – | –
CNc1ncc(-c2ccc3c(=O)c(C(=O)O)cn(C4CC4)c3c2C)cc1C [Ozenoxacin] | 96.05 | 100.15 | 94.32 | 88.16 | 4.14 | – | – | – | – | – | –
CO[C@@]12[C@H](COC(N)=O)C3=C(C(=O)C(C)=C(N)C3=O)N1C[C@@H]1N[C@@H]12 [Mitomycin C] | – | – | – | – | – | 4.12 | 39.7 | 4.9 | 3.56 | 2.5 | activity at 0.01 µM [16]: 41.6%; activity at 0.01 µM [17]: 93.2%; activity at 0.1 µM [18]: 2.22%; activity at 1 µM [19]: 1.49%; activity at 10 µM [20]: 0.24%; inhibition at 0.1 µM (Homo sapiens, at 0.1 μM, read-out: inhibition of cell invasion): > 50%
CCN(CC)CCOc1ccc2c(c1)C(=O)c1cc(OCCN(CC)CC)ccc1-2.Cl.Cl [Tilorone (dihydrochloride)] | 95.38 | 99.11 | 94.30 | 93.22 | 9.81 | – | – | – | – | – | –
Cc1ccc(C(=O)Nc2ccc(CN3CCN(C)CC3)c(C(F)(F)F)c2)cc1C#Cc1cnc2cccnn12 [Ponatinib] | – | – | – | – | – | – | – | – | – | – | activity at 0.01 µM (Homo sapiens, read-out: Invasion rates (%) of each drug’s multiple concentrations (μM), 0.01 μM (first column so headed), secondary screening of 87 hit compounds (Table S1)): 94.4%; activity at 0.01 µM (Homo sapiens, read-out: Invasion rates (%) of each drug’s multiple concentrations (μM), 0.01 μM (second column so headed), secondary screening of 87 hit compounds (Table S1)): 94.5%; activity at 0.1 µM (Homo sapiens, read-out: Invasion rates (%) of each drug’s multiple concentrations (μM), 0.1 μM, secondary screening of 87 hit compounds (Table S1)): 94.8%; activity at 1 µM (Homo sapiens, read-out: Invasion rates (%) of each drug’s multiple concentrations (μM), 1 μM, secondary screening of 87 hit compounds (Table S1)): 91%; activity at 10 µM (Homo sapiens, read-out: Invasion rates (%) of each drug’s multiple concentrations (μM), 10 μM, secondary screening of 87 hit compounds (Table S1)): 17.7%
CN(C)c1cc(NC(=O)CNC(C)(C)C)c(O)c2c1C[C@H]1C[C@H]3[C@H](N(C)C)C(=O)C(C(N)=O)=C(O)[C@@]3(O)C(=O)C1=C2O.CS(=O)(=O)O.CS(=O)(=O)O.CS(=O)(=O)O.CS(=O)(=O)O [Tigecycline (tetramesylate)] | 59.60 | 77.93 | 4.93 | 4.75 | 8.35 | – | – | – | – | – | Invasion rates (%) of each drug’s multiple concentrations (μM) [2]: 89.06%; Invasion rates (%) of each drug’s multiple concentrations (μM) [4]: 89.80%; Invasion rates (%) of each drug’s multiple concentrations (μM) [6]: 88.10%; Invasion rates (%) of each drug’s multiple concentrations (μM) [8]: 2.36%; Invasion rates (%) of each drug’s multiple concentrations (μM) [10]: 1.12%
C=C1c2cccc(O)c2C(O)=C2C(=O)[C@]3(O)C(O)=C(C(N)=O)C(=O)[C@@H](N(C)C)[C@@H]3[C@@H](O)[C@H]12.Cl [Methacycline (hydrochloride)] | 68.21 | 75.44 | 57.31 | 4.98 | 3.07 | – | – | – | – | – | Invasion rates (%) of each drug’s multiple concentrations (μM) [2]: 93.06%; Invasion rates (%) of each drug’s multiple concentrations (μM) [4]: 92.10%; Invasion rates (%) of each drug’s multiple concentrations (μM) [6]: 89.39%; Invasion rates (%) of each drug’s multiple concentrations (μM) [8]: 5.12%; Invasion rates (%) of each drug’s multiple concentrations (μM) [10]: 2.20%
O=C(Cn1ccnc1[N+](=O)[O-])NCc1ccccc1 [Benznidazol] | – | – | – | – | – | 92.5 | 94.3 | 88.1 | 90.9 | 4.48 | –
COc1ccc2c3c1O[C@H]1C[C@@H](O)C=C[C@@]31CCN(C)C2 [Galanthamine] | – | – | – | – | – | 86.8 | – | 88.4 | 83.3 | 15.1 | –
COC(=O)c1ccc2c(c1)NC(=O)/C2=C(\Nc1ccc(N(C)C(=O)CN2CCN(C)CC2)cc1)c1ccccc1 [Nintedanib] | – | – | – | – | – | 98.1 | 98.3 | 97.5 | 95.2 | 36.2 | –
Cc1ncc([N+](=O)[O-])n1CC(O)CN1CCOCC1 (stereo not drawn) [Morinidazole] | – | – | – | – | – | 83.3 | 89.7 | 75.5 | 60 | 4 | –
CCS(=O)(=O)CCn1c([N+](=O)[O-])cnc1C [Tinidazole] | – | – | – | – | – | 78.9 | 90.7 | 47.1 | 6.59 | 2.67 | activity at 0.01 µM [16]: 89.2%; activity at 0.01 µM [17]: 88.2%; activity at 0.1 µM [18]: 90.2%; activity at 1 µM [19]: 8.88%; activity at 10 µM [20]: 2.87%
CN(C)[C@@H]1C(O)=C(C(N)=O)C(=O)[C@@]2(O)C(O)=C3C(=O)c4c(O)cccc4[C@@](C)(O)[C@H]3[C@H](O)[C@@H]12 [Oxytetracycline] | – | – | – | – | – | 84.1 | 91 | 82.2 | 71.3 | 8.26 | –
